Columns and labels:
A549 cells [1] = assay: Caspase 3 dependent apoptotic response induced by cisplatin (Western blot); assay type: cell-based; conditions: miRNA overexpression in A549 cells
H1299 cells = assay: Cisplatin resistance validation in H1299 cells; assay type: cell-based; conditions: H1299, homozygous partial deletion of the TP53 gene
Text: (A) Kill curve of H1299 cells (with a homozygous partial deletion of the TP53 gene) overexpressing miR-24-3p or a miRNA control and exposed to increasing dose of cisplatin.
(§1) (B) Validation of the effects of cisplatin in two LUAD cell lines, H1299 (with a homozygous partial deletion of the TP53 gene) and H1975 (homozygous for the c.818G<A mutation of the TP53 gene).
(§2) Transfection. Pre-miR-24-3p, and control miRNA (miR-Neg #1) were purchased from Life technologies. For miR-24-3p knockdown experiments, LNA anti-miR-24-3p and LNA negative control were ordered from Exiqon. siRNA directed against BIM, PUMA, PNPO and PDXK were purchased from Life technologies. A549 and H1299 cells were grown in 10% FCS in DMEM and transfected at 30 to 40% confluency in 6-12- or 96 well plates using Lipofectamin RNAi MAX™ (Life technologies) with pre-miRNA, siRNAs LNA inhibitors at a final concentration of 5 nM unless indicated.
Functional genetic screen validation for miR-24-3p. Data were confirmed independently on a distinct lung adenocarcinoma cell line (H1299). Specificity to cisplatin resistance was assessed using docetaxel and vinorelbine.

human BIM 3′UTR = assay: Luciferase assay, BIM 3′UTR psiCHECK-2 construct in HEK293 cells; assay type: cell-based; conditions: two days after co-transfection, versus pre-miR-Neg
Description: (§3) (B): Results of luciferase assays in HEK293 cells transfected with the indicated constructions and pre-miR-24-3p or control miRNA.
(§4) Cells were harvested two days after transfection and luciferase activity were analysed. All renilla luciferase activities were normalized with firefly luciferase activity. **p<0.01.
(§5) Luciferase assay. Molecular constructs were made in psiCHECK-2 (Promega) by cloning behind the Renilla luciferase in the XhoI and NotI restrictions sites, annealed oligonucleotides derived from BIM, PUMA 3′ UTR. HEK293 cells were plated into 96-well and cotransfected using lipofectamin 2000 (Invitrogen) with 0.2 μg of psiCHECK-2 plasmid construct and pre-miR-24-3p or control miRNA at different concentrations. 48 hours after transfection, Firefly and Renilla Luciferase activities were measured using the Dual-Glo Luciferase assay (Promega).

A549 cells [2] = assay: Cisplatin sensitivity of A549 cells overexpressing miRNA (Annexin V/PI, ATP-based viability); assay type: cell-based
Description: A549 cells were transfected with pre-miR-24-3p for 2 days and the transfected cells were then exposed to either cisplatin or vinorelbin.
(A): Annexin V/PI staining of A549 cells overexpressing miR-24-3p and exposed to 60 μM cisplatin for 24 h.
(B): Vinorelbin dose response analysis of A549 cells overexpressing miR-24-3p. An ATP-based assay was used to assess cell viability.
as §2
Annexin V assay. Annexin-V-FITC apoptosis detection kit (Life technologies) was used to detect apoptotic activity. […] Annexin-V-FITC binding was determined by flow cytometry (excitation wavelength of 488 nm; emission wavelength of 530 nm) using the FITC signal detector (FL1), and propidium iodide staining was detected by the phycoerythrin emission signal detector (FL2).

A549 cells [3] = assay: DNA damage response induced by cisplatin (nuclear foci, confocal microscopy); assay type: cell-based; conditions: 7 h following cisplatin exposure, miRNA overexpression
Description: A549 cells overexpressing miR-24-3p were exposed to cisplatin for 7 h and nuclear foci of (i) phosphorylated histone H2A.X at SER139 (y-HAX) and (ii) phosphorylated ATM at Ser1981 (p-ATM) were assessed by confocal microscopy.
(C): percentage of cells (n=3) exposed to cisplatin and containing more than five nuclear foci of y-HAX and phosphor-ATM, respectively after miR-24-3p overexpression.
Immunofluorescence analysis. A549 cells were grown on a Round Glass Coverslips Ø16 mm (thermo scientific) placed inside a 12 Multiwell Plate. Coverslips slides were washed in phosphate-buffered saline and fixed in 4% paraformaldehyde for 15 min, cells were then permeated using 0.1% Triton X-102 (Agilent Technologies) for 10 min. and blocked with PBS solution containing BSA (3%) for 30 min. Incubation with primary antibodies was performed in a blocking solution BSA (1%) at 37° C. for 1 h. After three washes with PBS, cells were incubated with secondary antibodies. Forty five min later, Coverslips slides were fixed on microscope slides using ProLong Gold Antifade Reagent with DAPI (Invitrogen). Fluorescence was viewed with an FV10i Olympus confocal scanning microscope.

H1975 cells = assay: Cisplatin resistance validation in H1975 cells; assay type: cell-based; conditions: H1975, homozygous c.818G>A mutation of the TP53 gene
Text: as §1

PUMA 3′UTR = assay: Luciferase assay, PUMA 3′UTR psiCHECK-2 construct in HEK293 cells; assay type: cell-based, human; conditions: two days after co-transfection, versus pre-miR-Neg
Description: as §3, §4, §5

A549 cells [4] = assay: Functional genetic screen for miRNAs inducing cisplatin resistance; assay type: cell-based; conditions: pre-miR library transfected two days, then cisplatin 60 μM three days, Cell Titer Glow assay
Description: A549 cells were transfected with the pre-miR library for two days and the transfected cells were then exposed to cisplatin at 60 μM for three days. Cell viability was measured in single well using Cell Titer Glow assay.
(A): Plot of normalized viability versus −log10 FDR-adjusted P-value for all miRNAs overexpressed in A549 cells. Vertical dashed lines denote the selected normalized viability cutoff, while the Horizontal line denotes the 0.01 selected FDR-adjusted P-value cutoff. Each dot represents a miRNA. Dots surrounded in the upper right quadrant represent miRNAs associated with cisplatin resistance at the chosen cutoffs. The standardized residual viability of the miR-24-3p miRNA was estimated at 4.9512.
Functional genetic screen. Mimics were transfected in authenticated A549 lung adenocarcinoma cell line in 96 well plate format. 48 h following transfection, cells were exposed to cisplatin at 60 μM (2 times DL50; DL50 corresponding to the drug concentration lethal to 50% of the tumor cells) for three days. Viability was assessed using the cell titer glo assay (Promega). […]
miRNA candidate selection. miRNA candidates were selected for further analysis based on statistical significance (p<0.01) and degree of resistance induced (assessed by viability after drug exposure, normalized viability above 3).

Substance: pre-miR-24-3p: miRNA mimic purchased from Life technologies, used to overexpress miR-24-3p (UGGCUCAGUUCAGCAGGAACAG, SEQ ID No:1) (listed as RNA, chemistry not given here)
- caspase 3 dependent apoptotic response induced by cisplatin (A549 cells [1]): strongly inhibits
- cisplatin resistance (H1299 cells): contributed to cisplatin resistance independently of p53
- direct targeting of BIM 3′UTR (renilla luciferase normalized with firefly) (human BIM 3′UTR): direct targets
- resistance to platinum based-compounds (cisplatin, carboplatin, oxaliplatin) (A549 cells [2]; A549 cells overexpressing the miRNA, comparison with vinorelbin treatment): strongly resistant
- response to cisplatin (A549 cells [2]; A549 cells transfected with pre-miR, versus cells not overexpressing miR-24-3p): the response to cisplatin was lesser
- ATM signaling (A549 cells [3]): decreased ATM signaling
- DNA damage (phospho-yH2AX nuclear foci) (A549 cells [3]): less DNA damage
- cisplatin resistance (H1975 cells): contributed to cisplatin resistance independently of p53
- direct targeting of PUMA 3′UTR (renilla luciferase normalized with firefly) (PUMA 3′UTR): direct targets
- standardized residual viability (A549 cells [4]): 4.9512

Reference: US20220389420A1, “AGENTS FOR THE TREATMENT OF PATIENTS WITH NSCLC AND METHODS TO PREDICT RESPONSE” (CENTRE NATIONAL DE LA RECHERCHE SCIENTIFIQUE, priority 2016, published 2022)
